This is an account of results in article PMC7071032, “In Vitro Inhibition of Hsp90 Protein by Benzothiazoloquinazolinequinones Is Enhanced in The Presence of Ascorbate. A Preliminary In Vivo Antiproliferative Study” (Molecules, 2020).

Experiment [1] has as its system Hsp90. Kind of experiment: Immunoblot of Hsp90 protein integrity in T24 cells. It is filed as cell-based, human. The conditions noted are these: 5 µM quinone plus 1 mM ascorbate, 4 h. The protocol:
Nevertheless, when incubation was done in the presence of 1 mM ascorbate (vitamin C) plus quinones (including menadione), a new peptide fragment of about 70 kD was detected by the antibody against Hsp90.
Figure 1 Effects of selected quinones of Hsp90 (A) and poly(ADPribose)polymerase (PARP) (B) protein integrity in T24 cells. Cancer cells were incubated for 4 h with 5 µM menadione (K3), 15, 16, 19, or 20 either in the absence or in the presence of 1 mM ascorbate (Asc). Ctl represents control untreated cells. * p < 0.05 as compared to control conditions.
Cancer cells were incubated for 4 h in the absence and in the presence of compounds. Afterward, cells were washed twice with ice-cold PBS and then resuspended in RIPA lysis buffer supplemented with 1% protease inhibitor cocktail (Sigma–Aldrich, St. Louis, MO, USA) and 3% phosphatase inhibitor cocktail (Calbiochem, Darmstadt, Germany). Treatment of samples and electrophoresis conditions were conducted as previously reported. Mouse monoclonal primary antibodies against hsp90α/β C-terminus (F8), and against β-actin (clone AC-15), were purchased from Santa Cruz Biotechnology (Santa Cruz, CA, USA) and from Abcam (Cambridge, UK), respectively. Rabbit polyclonal antibodies against PARP were purchased from BD Biosciences (San Diego, CA, USA). […]
(Immunoblotting shows a protein as a band on a membrane.)

Experiment [2] has as its system Hsp90. Kind of experiment: Immunoblot of Hsp90 protein integrity in TLT cells. The experiment is classed as cell-based, murine. Particulars: 5 µM plus 1 mM ascorbate, 4 h. The protocol:
Cancer cells were incubated for 4 h with 5 µM menadione (K3) or 15 either in the absence or in the presence of 1 mM ascorbate (Asc). Ctl represents control untreated cells. * p < 0.05 as compared to control conditions. Cancer cells were incubated for 4 h in the absence and in the presence of compounds. Afterward, cells were washed twice with ice-cold PBS and then resuspended in RIPA lysis buffer supplemented with 1% protease inhibitor cocktail (Sigma–Aldrich, St. Louis, MO, USA) and 3% phosphatase inhibitor cocktail (Calbiochem, Darmstadt, Germany). Treatment of samples and electrophoresis conditions were conducted as previously reported. Mouse monoclonal primary antibodies against hsp90α/β C-terminus (F8), and against β-actin (clone AC-15), were purchased from Santa Cruz Biotechnology (Santa Cruz, CA, USA) and from Abcam (Cambridge, UK), respectively. Rabbit polyclonal antibodies against PARP were purchased from BD Biosciences (San Diego, CA, USA). Goat anti-rabbit antibody and rabbit anti-mouse polyclonal antibody were purchased respectively from Chemicon International (Temecula, CA, USA) and DakoCytomation (Glostrup, Denmark).

Experiment [3] has as its system transplantable primary liver tumor (TLT). Kind of experiment: In vivo antitumor activity in TLT-bearing mice. The conditions noted are these: TLT-bearing NMRI mice. The procedure:
To go one-step further, we assessed the effect of the quinone derivative 15 in the TLT-bearing mice model. The dose of 15 used in this study (i.e., 10 mg/kg) was calculated according to doses of menadione, previously used by Verrax et al.. In mice treated with 15, the calculated mean survival time was 24.0 days as compared to 21.9 days in control untreated-animals, representing an increase in life span of 9.6 % (Figure 3). Although this ILS represents a marginal effect as compared to a minimum optimal effect […], a small trend can be inferred supporting a potential protective activity by 15, that requires to be further confirmed. […] To go further, studies are intended in the near future using a larger range of doses of 15.
Figure 3 Kaplan–Meier diagram in groups of TLT-bearing NMRI mice receiving intraperitoneal (i.p.) saline (control untreated animals). Compound 15 was also i.p. administered as 10 mg/kg body weight, 24 h after i.p. transplantation of TLT cells.
Young adult male NMRI mice (25–30 g) were obtained from Janvier Labs (Saint-Berthevin, France). After their placement at the University Animal Facilities, animals were randomized according to their body weight. They were housed in groups of five mice per cage (40 × 25 × 15 cm^3) in a constant temperature environment (22 °C) with alternating 12 h day/night cycles receiving standard food (UAR, Villemoisson-sur-Orge, France) and tap water ad libitum.
Taper et al. first observed the transplantable primary liver tumor (TLT) in 1966 in a two-month old female Swiss Webster mouse. […] Fritzler et al. further characterized the ultrastructure of TLT hepatoma ascites cells. Regarding our experimental conditions, the TLT tumor was maintained by weekly intraperitoneal (i.p.) transplantation (10^4 cells/mice). […] Then, mice mortality was daily recorded. […]
The antitumor activity was calculated according to Geran et al. using the mean survival time (m.s.t.) at day 30 and the increase in life span (ILS) calculated as ILS = [([…]) − 1] × 100. […]

Experiment [4] deals with poly(ADPribose)polymerase (PARP). Kind of experiment: Immunoblot of PARP protein integrity in T24 cells. The experiment is classed as cell-based, human. The conditions noted are these: 5 µM, 4 h, regardless of the presence of ascorbate (1 mM). The procedure:
Figure 1 Effects of selected quinones of Hsp90 (A) and poly(ADPribose)polymerase (PARP) (B) protein integrity in T24 cells. […] Ctl represents control untreated cells. * p < 0.05 as compared to control conditions. […] This was the case regardless of the presence of ascorbate (1 mM). The obtained results make a potential role of apoptosis unlikely to be the underlying mechanism of cell impairment induced by quinones, including menadione. Indeed, PARP is a substrate of caspase-3, therefore, when an apoptosis process is triggered, it is expected that PARP protein will be cleaved yielding a second protein band also recognized by the anti-PARP antibody. Cancer cells were incubated for 4 h in the absence and in the presence of compounds. Afterward, cells were washed twice with ice-cold PBS and then resuspended in RIPA lysis buffer supplemented with 1% protease inhibitor cocktail (Sigma–Aldrich, St. Louis, MO, USA) and 3% phosphatase inhibitor cocktail (Calbiochem, Darmstadt, Germany). Treatment of samples and electrophoresis conditions were conducted as previously reported. Mouse monoclonal primary antibodies against hsp90α/β C-terminus (F8), and against β-actin (clone AC-15), were purchased from Santa Cruz Biotechnology (Santa Cruz, CA, USA) and from Abcam (Cambridge, UK), respectively. Rabbit polyclonal antibodies against PARP were purchased from BD Biosciences (San Diego, CA, USA). […]

For the compound `Cc1ccc2c(c1)SC1=NC3=C(C(=O)c4ccccc4C3=O)C(C)(O)N12` (stereo not drawn) [Compound 15], the Hsp90 protein cleavage result is recorded as “induced an oxidative cleavage of Hsp90” in the experiment on Hsp90 [1] and “oxidative cleavage of Hsp90” with Hsp90 [2]. Also, in experiment [3] (10 mg/kg i.p. single dose 24 h after i.p. transplantation, control 21.9 days), the “mean survival time (m.s.t.)” value is 24.0 days. Also, in experiment [3] (10 mg/kg i.p. single dose, vs control untreated animals), the “increase in life span (ILS)” value is 9.6%. For the same compound, the “mean of individual mouse survival” value in experiment [3] (10 mg/kg i.p., control 21.2 ± 1.6 days, t-test p = 0.262, no significant difference) amounted to 22.8 ± 6.1 days. Besides, in experiment [4], the PARP cleavage entry was “no effect on PARP protein integrity”.
